From patent publication US6525001B1, “Substituted pyrimidine and pyridine herbicides” (Mid-American Commercialization Corporation, priority 1997, dated 2003)

Key:
Assay in all cases: Test B pre-/postemergence
Format in all cases: in vivo
Set-up in all cases: key: 0 is no effect; 10 is complete control
[1] = tested on: soybean (Glycine max)
Summary of the method: (§1)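 Scored visually 0 (none) to 10 (complete control) against untreated plants after twelve to sixteen greenhouse days. Test chemicals, formulated in surfactant-containing non-phytotoxic solvent, applied to soil after planting and, separately, onto 1- to 4-leaf (2–18 cm) plants.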

[2] = tested on: wild oat (Avena fatua)
Summary of the method: as §1

[3] = tested on: wheat (Triticum aestivum)
Summary of the method: as §1

[4] = tested on: blackgrass (Alopecurus myosuroides)
Summary of the method: as §1

[5] = tested on: velvetleaf (Abutilon theophrasti)
Summary of the method: as §1

[6] = tested on: corn (Zea mays)
Summary of the method: as §1

[7] = tested on: pigweed (Amaranthus retroflexus)
Summary of the method: as §1

[8] = tested on: crabgrass (Digitaria sanguinalis)
Summary of the method: as §1

[9] = tested on: sugar beet (Beta vulgaris)
Summary of the method: as §1

[10] = tested on: cocklebur (Xanthium strumarium)
Summary of the method: as §1

[11] = tested on: bedstraw (Galium aparine)
Summary of the method: as §1

[12] = tested on: broadleaf signalgrass (Brachiaria decumbens)
Summary of the method: as §1

[13] = tested on: rape (Brassica napus)
Summary of the method: as §1

[14] = tested on: momingglory (Ipomoea hederacea)
Summary of the method: as §1

SMILES: Cc1cnc(-n2ccc(C(F)(F)F)n2)nc1Cn1ccc(C(F)(F)F)n1 [Compound 52]
- Plant response rating, Soybean ([1]; Rate 62 g/ha, Postemergence): 9
- Soybean plant response rating ([1]; Rate 62 g/ha, Preemergence): 4
- Soybean plant response rating ([1]; Rate 125 g/ha, Postemergence): 9
- Plant response rating, Soybean ([1]; Rate 125 g/ha, Preemergence): 7
- Plant response rating, Soybean ([1]; Rate 250 g/ha, Postemergence): 9
- Plant response rating, Soybean ([1]; Rate 250 g/ha, Preemergence): 8
- Plant response rating, Soybean ([1]; Rate 500 g/ha, Postemergence): 9
- Plant response rating, Soybean ([1]; Rate 500 g/ha, Preemergence): 9
- Wild oats plant response rating ([2]; Rate 62 g/ha, Postemergence): 6
- Wild oats plant response rating ([2]; Rate 62 g/ha, Preemergence): 3
- Wild oats plant response rating ([2]; Rate 125 g/ha, Postemergence): 8
- Plant response rating, Wild oats ([2]; Rate 125 g/ha, Preemergence): 5
- Plant response rating, Wild oats ([2]; Rate 250 g/ha, Postemergence): 8
- Plant response rating, Wild oats ([2]; Rate 250 g/ha, Preemergence): 9
- Plant response rating, Wild oats ([2]; Rate 500 g/ha, Postemergence): 9
- Plant response rating, Wild oats ([2]; Rate 500 g/ha, Preemergence): 10
- Wheat plant response rating ([3]; Rate 62 g/ha, Postemergence): 4
- Wheat plant response rating ([3]; Rate 62 g/ha, Preemergence): 2
- Wheat plant response rating ([3]; Rate 125 g/ha, Postemergence): 7
- Plant response rating, Wheat ([3]; Rate 125 g/ha, Preemergence): 2
- Plant response rating, Wheat ([3]; Rate 250 g/ha, Postemergence): 7
- Plant response rating, Wheat ([3]; Rate 250 g/ha, Preemergence): 3
- Plant response rating, Wheat ([3]; Rate 500 g/ha, Postemergence): 8
- Plant response rating, Wheat ([3]; Rate 500 g/ha, Preemergence): 6
- Plant response rating, Blackgrass ([4]; Rate 62 g/ha, Postemergence): 5
- Blackgrass plant response rating ([4]; Rate 62 g/ha, Preemergence): 5
- Blackgrass plant response rating ([4]; Rate 125 g/ha, Postemergence): 9
- Plant response rating, Blackgrass ([4]; Rate 125 g/ha, Preemergence): 8
- Plant response rating, Blackgrass ([4]; Rate 250 g/ha, Postemergence): 9
- Plant response rating, Blackgrass ([4]; Rate 250 g/ha, Preemergence): 10
- Plant response rating, Blackgrass ([4]; Rate 500 g/ha, Postemergence): 9
- Plant response rating, Blackgrass ([4]; Rate 500 g/ha, Preemergence): 10
- Plant response rating, Velvetleaf ([5]; Rate 62 g/ha, Postemergence): 8
- Velvetleaf plant response rating ([5]; Rate 62 g/ha, Preemergence): 10
- Velvetleaf plant response rating ([5]; Rate 125 g/ha, Postemergence): 8
- Plant response rating, Velvetleaf ([5]; Rate 125 g/ha, Preemergence): 10
- Plant response rating, Velvetleaf ([5]; Rate 250 g/ha, Postemergence): 8
- Plant response rating, Velvetleaf ([5]; Rate 250 g/ha, Preemergence): 10
- Plant response rating, Velvetleaf ([5]; Rate 500 g/ha, Postemergence): 9
- Plant response rating, Velvetleaf ([5]; Rate 500 g/ha, Preemergence): 10
- Plant response rating, Corn ([6]; Rate 62 g/ha, Postemergence): 4
- Corn plant response rating ([6]; Rate 62 g/ha, Preemergence): 3
- Corn plant response rating ([6]; Rate 125 g/ha, Postemergence): 5
- Plant response rating, Corn ([6]; Rate 125 g/ha, Preemergence): 3
- Plant response rating, Corn ([6]; Rate 250 g/ha, Postemergence): 6
- Plant response rating, Corn ([6]; Rate 250 g/ha, Preemergence): 7
- Plant response rating, Corn ([6]; Rate 500 g/ha, Postemergence): 7
- Plant response rating, Corn ([6]; Rate 500 g/ha, Preemergence): 8
- Plant response rating, Redroot pigweed ([7]; Rate 62 g/ha, Postemergence): 9
- Redroot pigweed plant response rating ([7]; Rate 62 g/ha, Preemergence): 10
- Redroot pigweed plant response rating ([7]; Rate 125 g/ha, Postemergence): 10
- Plant response rating, Redroot pigweed ([7]; Rate 125 g/ha, Preemergence): 10
- Plant response rating, Redroot pigweed ([7]; Rate 250 g/ha, Postemergence): 10
- Plant response rating, Redroot pigweed ([7]; Rate 250 g/ha, Preemergence): 10
- Plant response rating, Redroot pigweed ([7]; Rate 500 g/ha, Postemergence): 10
- Plant response rating, Redroot pigweed ([7]; Rate 500 g/ha, Preemergence): 10
- Plant response rating, Crabgrass ([8]; Rate 62 g/ha, Postemergence): 6
- Crabgrass plant response rating ([8]; Rate 62 g/ha, Preemergence): 9
- Crabgrass plant response rating ([8]; Rate 125 g/ha, Postemergence): 8
- Plant response rating, Crabgrass ([8]; Rate 125 g/ha, Preemergence): 10
- Plant response rating, Crabgrass ([8]; Rate 250 g/ha, Postemergence): 9
- Plant response rating, Crabgrass ([8]; Rate 250 g/ha, Preemergence): 10
- Plant response rating, Crabgrass ([8]; Rate 500 g/ha, Postemergence): 9
- Plant response rating, Crabgrass ([8]; Rate 500 g/ha, Preemergence): 10
- Plant response rating, Sugarbeets ([9]; Rate 62 g/ha, Postemergence): 9
- Sugarbeets plant response rating ([9]; Rate 62 g/ha, Preemergence): 10
- Sugarbeets plant response rating ([9]; Rate 125 g/ha, Postemergence): 10
- Plant response rating, Sugarbeets ([9]; Rate 125 g/ha, Preemergence): 10
- Plant response rating, Sugarbeets ([9]; Rate 250 g/ha, Postemergence): 10
- Plant response rating, Sugarbeets ([9]; Rate 250 g/ha, Preemergence): 10
- Plant response rating, Sugarbeets ([9]; Rate 500 g/ha, Postemergence): 10
- Plant response rating, Sugarbeets ([9]; Rate 500 g/ha, Preemergence): 10
- Plant response rating, Cocklebur ([10]; Rate 62 g/ha, Postemergence): 8
- Cocklebur plant response rating ([10]; Rate 62 g/ha, Preemergence): 1
- Cocklebur plant response rating ([10]; Rate 125 g/ha, Postemergence): 8
- Plant response rating, Cocklebur ([10]; Rate 250 g/ha, Postemergence): 9
- Plant response rating, Cocklebur ([10]; Rate 250 g/ha, Preemergence): 7
- Plant response rating, Cocklebur ([10]; Rate 500 g/ha, Postemergence): 9
- Plant response rating, Cocklebur ([10]; Rate 500 g/ha, Preemergence): 10
- Plant response rating, Bedstraw ([11]; Rate 62 g/ha, Postemergence): 9
- Bedstraw plant response rating ([11]; Rate 62 g/ha, Preemergence): 7
- Bedstraw plant response rating ([11]; Rate 125 g/ha, Postemergence): 10
- Plant response rating, Bedstraw ([11]; Rate 125 g/ha, Preemergence): 8
- Plant response rating, Bedstraw ([11]; Rate 250 g/ha, Postemergence): 10
- Plant response rating, Bedstraw ([11]; Rate 250 g/ha, Preemergence): 9
- Plant response rating, Bedstraw ([11]; Rate 500 g/ha, Postemergence): 10
- Plant response rating, Bedstraw ([11]; Rate 500 g/ha, Preemergence): 10
- Plant response rating, B. signalgrass ([12]; Rate 62 g/ha, Postemergence): 4
- B. signalgrass plant response rating ([12]; Rate 62 g/ha, Preemergence): 8
- B. signalgrass plant response rating ([12]; Rate 125 g/ha, Postemergence): 9
- Plant response rating, B. signalgrass ([12]; Rate 125 g/ha, Preemergence): 9
- Plant response rating, B. signalgrass ([12]; Rate 250 g/ha, Postemergence): 9
- Plant response rating, B. signalgrass ([12]; Rate 250 g/ha, Preemergence): 10
- Plant response rating, B. signalgrass ([12]; Rate 500 g/ha, Postemergence): 9
- Plant response rating, B. signalgrass ([12]; Rate 500 g/ha, Preemergence): 10
- Plant response rating, Rape ([13]; Rate 62 g/ha, Postemergence): 9
- Rape plant response rating ([13]; Rate 62 g/ha, Preemergence): 9
- Rape plant response rating ([13]; Rate 125 g/ha, Postemergence): 9
- Plant response rating, Rape ([13]; Rate 125 g/ha, Preemergence): 10
- Plant response rating, Rape ([13]; Rate 250 g/ha, Postemergence): 9
- Plant response rating, Rape ([13]; Rate 250 g/ha, Preemergence): 10
- Plant response rating, Rape ([13]; Rate 500 g/ha, Postemergence): 10
- Plant response rating, Rape ([13]; Rate 500 g/ha, Preemergence): 10
- Plant response rating, Morningglory ([14]; Rate 62 g/ha, Postemergence): 10
- Morningglory plant response rating ([14]; Rate 62 g/ha, Preemergence): 9
- Morningglory plant response rating ([14]; Rate 125 g/ha, Postemergence): 10
- Plant response rating, Morningglory ([14]; Rate 125 g/ha, Preemergence): 10
- Plant response rating, Morningglory ([14]; Rate 250 g/ha, Postemergence): 10
- Plant response rating, Morningglory ([14]; Rate 250 g/ha, Preemergence): 10
- Plant response rating, Morningglory ([14]; Rate 500 g/ha, Postemergence): 10
- Plant response rating, Morningglory ([14]; Rate 500 g/ha, Preemergence): 10
